Assay [1] relates to Candida albicans. Briefly: Antifungal activity against fluconazole-resistant Candida albicans isolate g5 cultured in YNB media after 48 hrs by broth microdilution method. The format is functional. The following applies: isolate g5, 48 h.
The test system of assay [2] is Candida albicans. Briefly: Antifungal activity against Candida albicans SC5314 cultured in YNB media after 48 hrs by broth microdilution method. Conditions: SC5314, 48 h. The format is functional.
The subject of assay [3] is Candida albicans. Briefly: Antifungal activity against Candida albicans SC5314 cultured in YNB media after 72 hrs by broth microdilution method. Format: functional. Conditions: SC5314, 72 h.
Assay [4] relates to Saccharomyces cerevisiae. Briefly: Antifungal activity against Saccharomyces cerevisiae SC XH1549 cultured in YNB media after 24 hrs by broth microdilution method. Format: functional. The following applies: SC XH1549, 24 h.
Assay [5] has as its system Saccharomyces cerevisiae. Briefly: Antifungal activity against Saccharomyces cerevisiae SC XH1549 cultured in YNB media after 72 hrs by broth microdilution method. Conditions: SC XH1549, 72 h. The format is functional.
Assay [6] concerns Candida albicans. The experiment in a line: Antifungal activity against fluconazole-resistant Candida albicans isolate 17 cultured in YNB media after 72 hrs by broth microdilution method. The format is functional. Conditions: isolate 17, 72 h.
Assay [7] has as its system Candida albicans. Briefly: Antifungal activity against fluconazole-resistant Candida albicans isolate g5 cultured in YNB media after 72 hrs by broth microdilution method. Format: functional. The following applies: isolate g5, 72 h.
In assay [8] the test system is Candida parapsilosis. Briefly: Antifungal activity against Candida parapsilosis ATCC 22019 cultured in YNB media after 72 hrs by broth microdilution method. The format is functional. The following applies: Lodderomyces parapsilosis, ATCC 22019, 72 h.
For assay [9], the system named is Candida albicans. Briefly: Antifungal activity against Candida albicans SC5314 infected in Caenorhabditis elegans assessed as mortality at 20 nM after 24 hrs by propidium iodide staining based fluorescence microscopic analysis (reference value: 17%). The format is functional.
The subject of assay [10] is Saccharomyces cerevisiae. The experiment in a line: Antifungal activity against Saccharomyces cerevisiae SC XH1549 cultured in YNB media after 48 hrs by broth microdilution method. The format is functional. Conditions: SC XH1549, 48 h.
Assay [11] concerns Candida albicans. Briefly: Antifungal activity against fluconazole-resistant Candida albicans isolate 17 cultured in YNB media after 24 hrs by broth microdilution method. The following applies: isolate 17, 24 h. Format: functional.
For assay [12], the system named is Candida parapsilosis. Briefly: Antifungal activity against Candida parapsilosis ATCC 22019 cultured in YNB media after 24 hrs by broth microdilution method. The following applies: Lodderomyces parapsilosis, ATCC 22019, 24 h. Format: functional.
Assay [13] has as its system Candida parapsilosis. Briefly: Antifungal activity against Candida parapsilosis ATCC 22019 cultured in YNB media after 48 hrs by broth microdilution method. The following applies: Lodderomyces parapsilosis, ATCC 22019, 48 h. Format: functional.
Assay [14] deals with Candida albicans. The experiment in a line: Antifungal activity against Candida albicans SC5314 cultured in YNB media after 24 hrs by broth microdilution method. The format is functional. Conditions: SC5314, 24 h.
Assay [15] is described as follows: Inhibition of Candida albicans AHAS catalytic subunit using pyruvate as substrate measured after 30 mins by colorimetric method.
Assay [16] concerns Candida albicans. Briefly: Antifungal activity against fluconazole-resistant Candida albicans isolate 17 cultured in YNB media after 48 hrs by broth microdilution method. The following applies: isolate 17, 48 h. The format is functional.
Assay [17] concerns Candida albicans. The experiment in a line: Antifungal activity against fluconazole-resistant Candida albicans isolate g5 cultured in YNB media after 24 hrs by broth microdilution method. Format: functional. Conditions: isolate g5, 24 h.
Assay [18] concerns Candida albicans. Briefly: Antifungal activity against Candida albicans SC5314 cultured in RPMI 1640 media after 24 hrs by broth microdilution method. The following applies: SC5314, 24 h. Format: functional.

In brackets after ≈: the same amount, converted by molar mass.

On to `CCOc1ccccc1OS(=O)(=O)NC(=O)Nc1nc(OC)cc(OC)n1` [ETHOXYSULFURON], for which the MIC against Candida albicans [1] amounted to 1.25 µg/mL (≈ 3.14 µM); in the assay on Candida albicans [2], 1.25 µg/mL (≈ 3.14 µM); with Candida albicans [3], 1.25 µg/mL (≈ 3.14 µM); in the assay with Saccharomyces cerevisiae [4] it was 5 µg/mL (≈ 12.6 µM); in the assay with Saccharomyces cerevisiae [5] it was 5 µg/mL (≈ 12.6 µM); against Candida albicans [6] it was 2.5 µg/mL (≈ 6.28 µM). For the same compound, the minimum inhibitory concentration (MIC) in the assay with Candida albicans [7] is 2.5 µg/mL (≈ 6.28 µM); against Candida parapsilosis [8], 2.5 µg/mL (≈ 6.28 µM); in the assay with Saccharomyces cerevisiae [10] it was 5 µg/mL (≈ 12.6 µM); with Candida albicans [11], 1.25 µg/mL (≈ 3.14 µM); against Candida parapsilosis [12], 1.25 µg/mL (≈ 3.14 µM); with Candida parapsilosis [13] it was 2.5 µg/mL (≈ 6.28 µM). The MIC against Candida albicans [14] came to 0.625 µg/mL (≈ 1.57 µM); with Candida albicans [16], 2.5 µg/mL (≈ 6.28 µM); in the assay on Candida albicans [17], 1.25 µg/mL (≈ 3.14 µM); in the assay on Candida albicans [18] it was 12.5 µg/mL (≈ 31.4 µM). The Activity with Candida albicans [9] turned out to be 3%. The Ki in [15] amounted to 21.6 nM. The compound further showed a pKi in [15] of 7.66.
Compound `COc1cc(Cl)nc(NC(=O)[N-]S(=O)(=O)Oc2ccc([N+](=O)[O-])cc2)n1.[Na+]` showed an MIC against Candida albicans [14] of over 100 µg/mL. In [15], this compound showed a Ki of 28000 nM and a pKi of 4.55. In addition, the MIC against Candida albicans [18] is over 100 µg/mL.
Turning to `COC(=O)c1ccccc1OS(=O)(=O)[N-]C(=O)Nc1nc(Cl)cc(OC)n1.[Na+]`, the MIC against Candida albicans [14] is over 100 µg/mL. Moreover, in assay [15], the Ki came out at 55 nM and the pKi amounted to 7.26. The same compound registered an MIC against Candida albicans [18] of over 100 µg/mL.
On to `Cc1cc(C)nc(NC(=O)[N-]S(=O)(=O)Oc2ccccc2OCCI)n1.[Na+]`, for which the MIC in the assay on Candida albicans [14] and against Candida albicans [18] was over 100 µg/mL each time. In assay [15], this compound registered a Ki of 3570 nM. Besides, in assay [15], the pKi was 5.45.
As for `COc1cc(Br)nc(NC(=O)[N-]S(=O)(=O)Oc2ccccc2C(=O)OCCCl)n1.[Na+]`, the MIC against Candida albicans [14] and against Candida albicans [18] was over 100 µg/mL each time. In assay [15], this compound showed a Ki of 379 nM. In [15], the pKi is recorded as 6.41.
Consider `COc1cc(Br)nc(NC(=O)[N-]S(=O)(=O)Oc2ccccc2OCCI)n1.[Na+]`, for which the MIC against Candida albicans [14] and in the assay on Candida albicans [18] was over 100 µg/mL each time. Moreover, in assay [15], the Ki turned out to be 478 nM. Further, the pKi in assay [15] is recorded as 6.33.
`COc1cc(Cl)nc(NC(=O)[N-]S(=O)(=O)Oc2ccccc2OCCCl)n1.[Na+]`: the MIC in the assay with Candida albicans [14] and in the assay on Candida albicans [18] was over 100 µg/mL throughout. Moreover, the affinity in assay [15], expressed as Ki, was 87 nM. In addition, in [15], the pKi turned out to be 7.06.
Consider `CCOC(=O)c1cccc(OS(=O)(=O)[N-]C(=O)Nc2nc(C)cc(OC)n2)c1.[Na+]`, for which the MIC against Candida albicans [14] was over 100 µg/mL. In addition, in assay [15], affinity was put at a Ki of 1640 nM and the pKi was determined as 5.78. In the assay on Candida albicans [18], this compound displayed an MIC of over 100 µg/mL.

Values taken from ChEMBL document CHEMBL4382231, “Chemical preparation, biological evaluation and 3D-QSAR of ethoxysulfuron derivatives as novel antifungal agents targeting acetohydroxyacid synthase” (Eur J Med Chem, 2019).
